# Patent US20020128258A1, “Therapeutical method involving subcutaneous administration of drugs containing cephalotaxine derivatives” (priority 2001, published 2002)
# Entries after “also recorded” stand apart in the source; their conditions may differ. Like-named read-outs stand apart in the source and are kept apart here.
# Assays:
# Beagle Dog = experiment: Subacute toxicity screening of two forms of HHT in one dog; type: in vivo; details: for Clinical examination: clinical signs: single subcutaneous injection (hydrochloride day 5, base day 11); for Tolerance (toxicology conclusion): one dog, CIVI 48 hours or subcutaneous injection
# Description: Species/Strain: Beagle Dog […]
# treatment 1: Intravenous infusion (IV)
# Treatments 2 and 3: subcutaneous injection (SQ) […]
# treatment 1: continuous Intravenous infusion (CIVI) for 48 hours (days 1 and 2) treatment 2: single subcutaneous (SQ) injection on day 5 treatment 3: single subcutaneous (SQ) injection on day 11
# Duration of treatment: see § administration/day […]
# treatments 1 and 2: sterile isotonic saline solution
# [1] = system: patient with acute myeloid leukemia / blastic phase of chronic myelogenous leukemia
# Description: In addition, this patient was not eligible for bone marrow transplantation. All current good clinical practices and applicable ethical rules were applied. […] Physicians of this institution were experienced with the clinical use of the same formulation by intravenous mode of administration in patients with myeloid leukemias. […] A 5 mg-vial of lyophilized HHT hydrochloride for injection was reconstituted with 2.5 mL of saline water for injection. A volume corresponding to 1 mg of HHT per square meter of body surface area per day divided In two daily subcutaneous injections (2 subcutaneous injections a day) was administered in a short single injection, during a period of nine (9) consecutive days.
# [2] = dog, in vivo, sc
# Description: (§1) Comparative Pharmacokinetic Study in Dogs After Subcutaneous Injection of 5 mg/m2 of Hydrochloride and Base Forms of HHT
# (§2) Number of animals/sex/dose: the same dog was used for each treatment
# (§3) treatment 1: 0.25 mg/kg of substance A (HHT-hydrochloride form)
# (§4) treatment 2: 0.25 mg/kg of substance A (HHT-hydrochloride form)
# (§5) treatment 3: 0.25 mg/kg of substance B (HHT-base form)
# (§6) Treatment 3: aqueous solution in 0.5% hydroxyethylcellulose with 0.1% Tween 80
# (§7) Analytical method: HPLC with flourimetric detection
# (§8) Blood samples were collected at time 0, 30, 60, 120, 240, 480 minutes and 24 hours then HHT concentration was determined in plasma by an HPLC method in using a fluorimetric detection.
# [3] = Comparative pharmacokinetic study in dogs after subcutaneous injection of hydrochloride and base forms of HHT; details: dog, 0.25 mg/kg single subcutaneous injection
# Description: as §1, §2, §3, §4, §5, §6, §7, §8
# patients = details: continuous infusion 2.5 mg/m2 daily for 10 to 14 days; cited from earlier work
smiles,measurement,setting,value
COC(=O)C[C@](O)(CCCC(C)(C)O)C(=O)O[C@@H]1C(OC)=C[C@]23CCCN2CCc2cc4c(cc2[C@H]13)OCO4.Cl [HHT hydrochloride],Body weight loss,Beagle Dog; after treatment 1: 0.25 mg/kg continuous intravenous infusion 48 hours,1.1 kg
same,Body weight loss,Beagle Dog; after treatment 2: 0.25 mg/kg single subcutaneous injection on day 5,0.4 kg
same,"Local tolerance, microscopic examination (histopathology) of skin biopsy","Beagle Dog; biopsy taken on day 6, the day after the SQ injection, 0.25 mg/kg",well tolerated at the local level
same,Clinical signs following CIVI,"Beagle Dog; one Beagle dog, 0.25 mg/kg, continuous intravenous infusion for 48 hours",No clinical signs
same,Clinical examination: clinical signs,"Beagle Dog; one Beagle dog, 0.25 mg/kg","yellowish vomiting, soft feces, transient decrease in activity and hypersalivation"
same,Tolerance (toxicology conclusion),Beagle Dog; 0.25 mg/kg,good tolerance
same,Local tolerance at the points of injection,"[1]; human, in vivo",no local sign of intolerance
same,Granulocyte count (peripheral blood counts),"[1]; patient #01, SQ 1 mg/m2/day, 9 days",relatively fast decrease
same,"Myelosuppressive effect, post-induction follow-up","[1]; patient #01, SQ 1 mg/m2/day, typical of intravenous HHT 2.5 mg/m2/day",strong myelosuppressive effect
same,Clinical improvements compared with examples 3 and 4,"[1]; patient #03, acute myeloid leukemia",Same clinical improvements as those seen in example 3 and 4
same,Bioavailability of salt form versus base form,[2],considerably higher (triple)
same,Area under the curve (AUC),[2]; 0.25 mg/kg,280 ng·h/mL
same,Calculated rate AUC HHT-hydrochloride/AUC HHT-base,[2]; 0.25 mg/kg,3.24
same,Maximum of concentration in plasma,[2]; 0.25 mg/kg,112 ng/mL
same,Time of maximum of concentration,[2]; 0.25 mg/kg,2 h
"COC(=O)C[C@](O)(CCCC(C)(C)O)C(=O)O[C@@H]1C(OC)=C[C@]23CCCN2CCc2cc4c(cc2[C@H]13)OCO4 [HHT-base, reference compound]",Clinical examination: clinical signs,"Beagle Dog; one Beagle dog, 0.25 mg/kg, 0.25 mg/kg","liquid feces with presence of blood, hypersalivation, decrease in activity, pallor of gingival mucous membranes and decrease in activity; also recorded: liquid feces, hypersalivation, decrease in activity and pallor of gingival mucous membrane"
same,Tolerance (toxicology conclusion),Beagle Dog; 0.25 mg/kg,good tolerance
same,"Mortality, time after the beginning of the treatment","Beagle Dog; second subcutaneous injection, 0.25 mg/kg, day 11, same dog after earlier treatments",8 h
same,Area under the curve (AUC),[3],86.5 ng·h/mL
same,Maximum of concentration in plasma,[3],18 ng/mL
same,Time of maximum of concentration,[3],0.5 h
"COC(=O)C[C@](O)(CCCC(C)(C)O)C(=O)O[C@@H]1C(OC)=C[C@]23CCCN2CCc2cc4c(cc2[C@H]13)OCO4 [HHT, homoharringtonine]","Cardiovascular complications including hypotensive events and arrythmias, patients affected",patients,less than 5 % of patients
